Earlier results, collected in patent publication US20260183312A1, “A ROOM-TEMPERATURE STABLE, UNBUFFERED FORMULATION OF ROCURONIUM BROMIDE INJECTION FOR INTRAVENOUS ADMINISTRATION AND A METHOD THEREOF” (MAIVA PHARMA PRIVATE LIMITED, priority 2023, published 2026).

C=CC[N+]1([C@H]2C[C@H]3[C@@H]4CC[C@H]5C[C@H](O)[C@@H](N6CCOCC6)C[C@]5(C)[C@H]4CC[C@]3(C)[C@H]2OC(C)=O)CCCC1 [Rocuronium, Rocuronium bromide]
Patients with severe burning pain on administration: up to 80%
